For 3 compounds, IC50 results are on record in BindingDB's records for doi:10.1016/j.ejmech.2019.111921 (University of Kwazulu-Natal, 2020).

The target of experiment [1] is T1, Beta-glucuronidase (Rattus norvegicus, UniProt P06760).
T1 sequence (P06760 whole entry): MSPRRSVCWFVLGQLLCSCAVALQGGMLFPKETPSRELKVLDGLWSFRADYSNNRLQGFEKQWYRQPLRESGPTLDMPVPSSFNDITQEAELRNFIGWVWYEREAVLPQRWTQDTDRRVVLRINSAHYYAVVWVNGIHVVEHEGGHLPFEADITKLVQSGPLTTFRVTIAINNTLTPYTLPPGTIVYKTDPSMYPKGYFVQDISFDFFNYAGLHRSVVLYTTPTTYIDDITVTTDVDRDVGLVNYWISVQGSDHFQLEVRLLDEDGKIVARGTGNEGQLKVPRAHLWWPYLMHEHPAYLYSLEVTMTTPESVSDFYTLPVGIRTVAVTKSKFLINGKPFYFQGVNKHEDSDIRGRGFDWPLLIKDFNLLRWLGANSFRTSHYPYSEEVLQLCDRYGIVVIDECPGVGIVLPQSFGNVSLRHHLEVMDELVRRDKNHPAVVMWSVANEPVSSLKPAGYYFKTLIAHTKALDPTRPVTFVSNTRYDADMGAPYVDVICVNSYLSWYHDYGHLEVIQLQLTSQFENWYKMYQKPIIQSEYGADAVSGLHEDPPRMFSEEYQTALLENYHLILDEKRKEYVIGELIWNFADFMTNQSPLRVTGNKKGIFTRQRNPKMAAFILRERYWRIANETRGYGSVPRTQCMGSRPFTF
The experiment in a line: Inhibition of degranulated rat neutrophils beta-glucuronidase.

Experiment [2] has as its target T1, Beta-glucuronidase. Put plainly: Inhibition of degranulated rat peritoneal mast cells beta-glucuronidase.
Experiment [3] deals with T2, Beta-glucuronidase (Homo sapiens, UniProt P08236).
T2 sequence (P08236 whole entry): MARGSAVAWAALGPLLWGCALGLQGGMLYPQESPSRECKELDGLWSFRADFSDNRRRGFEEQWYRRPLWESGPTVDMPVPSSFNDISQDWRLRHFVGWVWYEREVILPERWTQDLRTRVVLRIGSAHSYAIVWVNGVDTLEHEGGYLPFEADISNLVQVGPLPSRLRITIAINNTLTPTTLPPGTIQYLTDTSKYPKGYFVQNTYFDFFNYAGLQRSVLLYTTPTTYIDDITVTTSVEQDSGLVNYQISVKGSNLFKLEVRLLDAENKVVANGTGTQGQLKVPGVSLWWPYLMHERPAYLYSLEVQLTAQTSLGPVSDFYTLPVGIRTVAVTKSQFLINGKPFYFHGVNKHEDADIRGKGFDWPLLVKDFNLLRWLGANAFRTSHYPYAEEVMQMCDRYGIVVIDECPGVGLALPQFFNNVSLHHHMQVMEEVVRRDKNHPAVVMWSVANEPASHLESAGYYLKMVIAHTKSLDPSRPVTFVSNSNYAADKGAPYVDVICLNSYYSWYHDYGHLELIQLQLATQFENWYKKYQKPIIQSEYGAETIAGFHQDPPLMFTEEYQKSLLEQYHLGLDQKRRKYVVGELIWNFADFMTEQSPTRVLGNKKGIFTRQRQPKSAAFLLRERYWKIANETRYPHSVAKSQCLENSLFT
Put plainly: Inhibition of beta-glucuronidase (unknown origin).

For orientation: IC50 means the midpoint of a concentration-inhibition curve. Low values mean higher potency, high ones lower potency.

Take `COc1cc(/C=C/C(=O)OC/C(C)=C\Cc2c(O)ccc(C(=O)/C=C/c3ccc(O)cc3)c2O)ccc1O` [Gemichalcone A]: the IC50 in experiment [1] stood at 6.6 µM; in experiment [2] it was 70 µM. For `COc1cc([C@@H]2Oc3cc([C@H]4Oc5cc(O)cc(O)c5C(=O)[C@@H]4O)ccc3O[C@H]2CO)ccc1O` [Silybin B], in experiment [3], it took 1640 µM to reach half-maximal inhibition (IC50). `C/C(=C/Cc1c(O)ccc(C(=O)/C=C/c2ccc(O)cc2)c1O)COC(=O)/C=C/c1ccc(O)cc1` [gemichalcones B] displayed a concentration for half-maximal inhibition (IC50) in experiment [1] of 5.8 µM.
